# Results from patent publication US12358896B2, “LRRK2 inhibitors and methods of making and using thereof” (DENALI THERAPEUTICS INC., priority 2019, dated 2025).
# Key:
# [1] = Metabolic stability in human liver microsomes (Biological Example 2); type: in vitro ADME; details: hepatic clearance (CLhep) scaled from human liver microsomes, 1 μM, well-stirred model
# Procedure: Metabolic stability of select compounds was evaluated in human liver microsomes (from Corning or XenoTech, LLC) using a 96-well plate assay format. Compounds were incubated at 37° C. at 1 μM final concentration in the microsomal matrix (0.5 mg/mL total protein) in the presence or absence of NADPH cofactor. An NADPH regenerating system, comprised of NADP, MgCl2, isocitric acid, and isocitrate dehydrogenase, was used in the assay. Enzymatic reactions were conducted for 0, 5, 10, 20, 30, or 60 min before termination by addition of acetonitrile containing tolbutamide and labetalol internal standards (100 ng/mL). After shaking for 10 min, plates were subjected to centrifugation (4000 rpm at 4° C.) for 20 min and supernatants mixed 1:3 with HPLC grade water. Samples were analyzed by LC-MS/MS using appropriate MRM transitions for each analyte and internal standard (IS). Analyte/IS peak area ratios were used to determine percent compound remaining at each time point. Intrinsic clearance (Clint; expressed as mL·min^−1·mg^−1) was calculated from the first order elimination constant (k, min^−1) of test article decay and the volume of the incubation. These values were scaled to intrinsic organ clearance (Clint) using human specific scaling factors (48.8 mg microsomal protein per g liver; 25.7 g liver per kg body weight). Organ Clint was subsequently converted to hepatic clearance, HLM, (CLhep, mL·min-1·kg-1) using the well-stirred model of hepatic elimination, where Qh is human hepatic blood flow (20.7 mL·min-1·kg-1).
# CLhep is the projected human clearance in the liver based on the above in vitro assay. A lower value is indicative of less compound being removed by the liver.
# [2] = target: LRRK2 G2019S enzyme (Homo sapiens, UniProt Q5S007, G2019S); assay: LRRK2 G2019S TR-FRET biochemical assay (Biological Example 1); details: 134 μM ATP, 5 nM LRRK2, LRRKtide substrate
# Chain of LRRK2 G2019S enzyme (Q5S007 whole entry G2019S): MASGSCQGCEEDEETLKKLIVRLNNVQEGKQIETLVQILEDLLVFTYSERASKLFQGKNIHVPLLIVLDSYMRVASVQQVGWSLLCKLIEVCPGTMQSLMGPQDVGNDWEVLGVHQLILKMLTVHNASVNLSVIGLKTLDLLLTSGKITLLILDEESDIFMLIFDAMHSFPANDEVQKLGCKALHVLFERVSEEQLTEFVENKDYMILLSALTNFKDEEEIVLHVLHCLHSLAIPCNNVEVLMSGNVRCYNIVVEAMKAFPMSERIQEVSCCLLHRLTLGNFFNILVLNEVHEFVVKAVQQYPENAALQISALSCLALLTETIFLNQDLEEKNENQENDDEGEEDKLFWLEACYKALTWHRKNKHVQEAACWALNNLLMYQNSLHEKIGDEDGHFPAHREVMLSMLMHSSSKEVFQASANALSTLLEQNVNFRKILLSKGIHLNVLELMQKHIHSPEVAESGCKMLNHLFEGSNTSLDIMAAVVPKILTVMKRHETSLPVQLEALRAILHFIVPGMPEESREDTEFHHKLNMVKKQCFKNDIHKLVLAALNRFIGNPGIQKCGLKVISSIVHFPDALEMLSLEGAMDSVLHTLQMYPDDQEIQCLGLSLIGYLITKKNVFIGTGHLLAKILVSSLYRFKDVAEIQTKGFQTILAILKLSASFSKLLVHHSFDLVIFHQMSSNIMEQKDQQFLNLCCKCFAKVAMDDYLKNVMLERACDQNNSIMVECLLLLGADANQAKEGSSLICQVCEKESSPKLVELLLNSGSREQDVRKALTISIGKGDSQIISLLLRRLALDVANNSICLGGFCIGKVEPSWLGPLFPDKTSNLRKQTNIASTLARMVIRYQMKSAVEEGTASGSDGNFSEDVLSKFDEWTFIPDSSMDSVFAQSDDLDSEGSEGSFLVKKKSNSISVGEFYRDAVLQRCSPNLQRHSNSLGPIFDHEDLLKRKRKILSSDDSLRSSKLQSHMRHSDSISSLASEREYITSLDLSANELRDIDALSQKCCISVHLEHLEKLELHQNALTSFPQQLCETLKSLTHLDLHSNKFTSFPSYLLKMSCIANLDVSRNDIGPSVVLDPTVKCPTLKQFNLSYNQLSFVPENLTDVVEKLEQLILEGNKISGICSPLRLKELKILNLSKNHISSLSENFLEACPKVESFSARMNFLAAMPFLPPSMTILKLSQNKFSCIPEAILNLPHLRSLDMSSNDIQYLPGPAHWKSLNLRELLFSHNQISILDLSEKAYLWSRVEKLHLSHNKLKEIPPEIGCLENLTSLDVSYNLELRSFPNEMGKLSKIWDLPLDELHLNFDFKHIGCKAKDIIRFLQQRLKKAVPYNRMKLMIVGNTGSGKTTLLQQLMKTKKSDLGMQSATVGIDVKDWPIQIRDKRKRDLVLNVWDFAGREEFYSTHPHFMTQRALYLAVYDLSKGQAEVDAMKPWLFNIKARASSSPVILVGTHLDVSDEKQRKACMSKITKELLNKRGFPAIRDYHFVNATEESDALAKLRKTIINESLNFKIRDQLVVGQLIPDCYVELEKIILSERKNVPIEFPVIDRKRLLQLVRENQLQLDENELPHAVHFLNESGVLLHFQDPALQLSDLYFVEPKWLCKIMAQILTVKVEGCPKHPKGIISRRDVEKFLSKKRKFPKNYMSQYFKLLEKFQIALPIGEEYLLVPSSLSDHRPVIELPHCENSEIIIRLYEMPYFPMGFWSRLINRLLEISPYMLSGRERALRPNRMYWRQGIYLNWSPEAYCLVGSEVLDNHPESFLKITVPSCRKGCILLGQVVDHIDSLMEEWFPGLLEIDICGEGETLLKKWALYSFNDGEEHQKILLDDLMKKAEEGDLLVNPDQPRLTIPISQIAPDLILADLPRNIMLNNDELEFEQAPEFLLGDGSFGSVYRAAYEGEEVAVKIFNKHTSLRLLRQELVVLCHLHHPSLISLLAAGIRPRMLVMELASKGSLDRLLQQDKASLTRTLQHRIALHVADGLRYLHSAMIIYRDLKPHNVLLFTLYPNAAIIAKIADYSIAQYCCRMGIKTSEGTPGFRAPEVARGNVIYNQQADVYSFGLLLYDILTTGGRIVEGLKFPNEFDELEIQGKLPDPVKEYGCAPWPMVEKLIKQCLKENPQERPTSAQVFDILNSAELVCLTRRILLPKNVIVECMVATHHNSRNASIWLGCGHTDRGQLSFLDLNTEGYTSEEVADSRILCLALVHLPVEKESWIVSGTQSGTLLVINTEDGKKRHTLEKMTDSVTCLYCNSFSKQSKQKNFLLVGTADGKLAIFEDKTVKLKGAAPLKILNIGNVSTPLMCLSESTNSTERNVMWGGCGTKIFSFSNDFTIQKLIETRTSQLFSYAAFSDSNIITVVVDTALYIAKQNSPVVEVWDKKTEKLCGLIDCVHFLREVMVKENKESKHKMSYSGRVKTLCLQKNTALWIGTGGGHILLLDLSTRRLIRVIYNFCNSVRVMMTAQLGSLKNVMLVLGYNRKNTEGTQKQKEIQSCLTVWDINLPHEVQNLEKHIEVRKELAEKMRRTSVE
# Procedure: • LRRK2 G2019S enzyme • Substrate (LRRKtide) • ATP • TR-FRET dilution buffer • pLRRKtide antibody • 384-well assay plate • DMSO Enzyme Reaction Conditions • 50 mM Tris pH 7.5, 10 mM MgCl2, 1 mM EGTA, 0.01% Brij-35, 2 mM DTT • 5 nM LRRK2 • 134 μM ATP • 60 minute reaction time • 23° C. reaction temperature • 10 μL total reaction volume Detection Reaction Conditions • 1×TR-FRET dilution buffer • 10 mM EDTA • 2 nM antibody • 23° C. reaction temperature • 10 μL total reaction volume
# Compounds are prepared by initially diluting to 1 mM with DMSO. 35 μL of reference compound solution, 35 μL of test compound solution, and 35 μL HPE are successively added to the source plate (384-well assay plate, Labcyte). The plates are centrifuged at 2500 rpm for 1 minute and sealed in foil. POD is used to perform a 3.162 fold serial dilution and 100 nL of reference compound solution, test compound solution, HPE and ZPE are transferred to assay plates. The assay plate is centrifuged at 2500 rpm for 1 minute, and sealed with foil.
# To perform the enzyme reaction, 5 μL of LRRKtide substrate and kinase mixture in assay buffer is added to all wells of the assay plate. The plate is centrifuged to concentrate the mixture at the bottom of the wells. The assay plate is incubated at 23° C. for 20 minutes. Following incubation, 5 μL of 2×ATP in assay buffer is added to each well, and plates are centrifuged to concentrate the mixture at the bottom of the wells. The plate is incubated at 23° C. for 60 minutes.
# To perform the detection of the reaction, EDTA completely mixed in TR-FRET dilution buffer is added to antibody reagent. 10 μL of detection reagent is added to all wells of each well of the assay plate and the plate is centrifuged to concentrate the mixture at the bottom of the wells. The plate is then incubated at 23° C. for 60 minutes. Plates are read on Perkin Elmer Envision 2104 instrument in TR-FRET mode using a 340 nm excitation filter, 520 nm fluorescence emission filter, and 490 or 495 nm terbium emission filter.
# [3] = target: T1, FLAG-tagged human LRRK2 with G2019S mutation (Homo sapiens, UniProt Q5S007, G2019S); assay: Inhibition of pSer935 in HEK293 cells with expressed G2019S LRRK2 (Biological Example 4); type: cell-based; details: transfected 293T cells, 90 minutes compound treatment, MSD readout; read-out: HEK293T LRRK2 G2019S pS935
# T1 construct: expressed in transfected cells; host or cells: HEK293 / 293T cells, transient transfection with pCMV-FLAG-G2019S
# T1 sequence (Q5S007 whole entry G2019S): as above
# Procedure: In this assay, inhibition of phosphorylation of LRRK2 at residue serine 935 (pS935) by test compound was determined in HEK293 cells.
# HEK293 cells were first transiently transfected with a plasmid harboring FLAG-tagged human LRRK2 cDNA with G2019S mutation (p.G2019S) under the control of CMV promoter for robust overexpression. The levels of phosphorylated Ser935 in G2019S expressing cells with or without compound treatment were measured by MSD using an anti-FLAG capture antibody and a phosho-specific anti-LRRK2 pS935 monoclonal detection antibody. The IC50 was determined by fitting a 10-point dose response data in duplicate with four parameter non-linear regression curve.
# (Day 1) 293T cell seeding: 293T cells were seeded (1.4×10^6/well) into each well of a 6-well plate. After two days in culture, the cell number can grow into 5×10^6/well, so N+1 wells were seeded (enough for N 96 well assay plates).
# (Day 2) 293T cell transfection: 5 μL of pCMV-FLAG-G2019S or pCMV-FLAG-WT LRRK2 (0.5 μg/μL) was added into 145 μL of DMEM medium, and mixed thoroughly by pipette up and down several times. 15 μL of SuperFect Transfection Reagent was added into samples, mixed thoroughly by pipetting up and down several times, and allowed to equilibrate at room temperature for 5-10 minutes. 0.5 mL of pre-warmed cell culture medium was added into samples, and mixed thoroughly by pipetting up and down several times. 650 μL of the mixture was added dropwise into each well of the 6 well plate, the plate was swirled to mix thoroughly, and incubated in a 37° C. incubator with a humidified atmosphere of 5% CO2 for 20-24 hours.
# (Day 3) 293T cells seed into 96 well plates: Cells were harvested and resuspended in cell culture medium at 0.96×10^6 cells/mL density. 50 μL/well cells were plated onto 96-well cell culture plate (48,000 cells/well), and the plates were incubated in a 37° C. incubator with a humidified atmosphere of 5% CO2 for 20-24 hours.
# (Day 4) Inhibitor Treatment and Cell Lysis: The compound destination plates were thawed at room temperature and centrifuged at 2000 rpm. 55 μL cell culture medium was added into compound destination plate, and the plate was warmed at 37° C.
# 50 μL of cell culture medium containing compounds was transferred into cell culture plate. Plates were incubated in a 37° C. incubator with a humidified atmosphere of 5% CO2 for 90 minutes, after which all of compound-containing medium was completely aspirated manually with 300 μL pipette. 100 μL/well of Lysis Buffer was added and the plates sealed, shaken at 4° C. for 30 minutes, and stored at −20° C. until usage.
# (Day 5) MSD procedure: 2 μg/25 μL/well of FLAG antibody diluted in PBS was added into the MSD plate, incubated for two hours at room temperature or overnight at 4° C. (in Day 4). 50 μL (3.9 μg/μL) of FLAG antibody plus 2.5 mL PBS, per 96 well plate, or 50 μL (3.9 μg/μL) anti-FLAG antibody plus 5 mL PBS per 384 well plate. The plates were centrifuged at 1000 rpm for 10 seconds and shaken with a plate shaker for 10 seconds.
# Anti-FLAG antibody was discarded, and the wells were washed using multidrop, low speed, two times with 300 μL/well of wash buffer for a 96 well plate or three times with 70 μL/well of wash buffer for a 384 well plate. 50 μL/well of block buffer for a 96 well plate, or 25 μL/well of block buffer for a 384 well plate, was added and the plates were incubated for two hours at room temperature. The Block buffer was then discarded and the wells washed two times using multidrop, low speed, with 300 μL/well of wash buffer for a 96 well plate, or three times with 70 μL/well of wash buffer for a 384 well plate.
# 25 μL of cell lysate was transferred into a 96 well MSD plate, or 12.5 μL of cell lysate into 384 well MSD plate, and the plates were incubated for one hour at room temperature.
# Note: The cell lysate should be thawed one hour prior to this step, the plate centrifuged at 1000 rpm for one minute, shaken for 30 seconds, and then unsealed for lysate transfer. […]
HLM Avg [1],IC50 [2],IC50 [3],Structure (SMILES)
6.4 mL/min/kg,1.03 nM,1.79 nM,"Cc1nn(C2C[C@@]2(C)C(N)=O)cc1Nc1ncc(C(F)(F)F)c(NC2(C)CC2)n1 (single isomer, unassigned) [Example 1, (1,2-cis)-1-methyl-2-(3-methyl-4-((4-((1-methylcyclopropyl)amino)-5-(trifluoromethyl)pyrimidin-2-yl)amino)-1H-pyrazol-1-yl)cyclopropanecarboxamide]"
8.9 mL/min/kg,1.49 nM,3 nM,"Cc1nn(C2C[C@]2(C)C(N)=O)cc1Nc1ncc(C(F)(F)F)c(NC2(C)CC2)n1 (single isomer, unassigned) [Example 4, (1,2-cis)-1-methyl-2-(3-methyl-4-((4-((1-methylcyclopropyl)amino)-5-(trifluoromethyl)pyrimidin-2-yl)amino)-1H-pyrazol-1-yl)cyclopropanecarboxamide]"
11 mL/min/kg,0.92 nM,5.12 nM,"CCNc1nc(Nc2cn([C@@H]3C[C@]3(C)C(N)=O)nc2C2CC2)ncc1C(F)(F)F (single isomer, unassigned) [Example 5, (1,2-cis)-2-(3-cyclopropyl-4-((4-(ethylamino)-5-(trifluoromethyl)pyrimidin-2-yl)amino)-1H-pyrazol-1-yl)-1-methylcyclopropanecarboxamide]"
,1.23 nM,5.79 nM,"Cc1nn(C2C[C@]2(C)C(N)=O)cc1Nc1ncc(C(F)(F)F)c(NC2CC2)n1 (single isomer, unassigned) [Example 6, (1,2-cis)-2-(4-((4-(cyclopropylamino)-5-(trifluoromethyl)pyrimidin-2-yl)amino)-3-methyl-1H-pyrazol-1-yl)-1-methylcyclopropanecarboxamide]"

# More lines, now with the values behind:
Structure (SMILES),HLM Avg [1],IC50 [2],IC50 [3]
"CNc1nc(Nc2cn([C@@H]3C[C@@H]3C(N)=O)nc2C2CC2)ncc1C(F)(F)F (single isomer, unassigned) [Example 2, (1,2-cis)-2-(3-cyclopropyl-4-((4-(methylamino)-5-(trifluoromethyl)pyrimidin-2-yl)amino)-1H-pyrazol-1-yl)cyclopropanecarboxamide]",,2.8 nM,3.06 nM
"CCNc1nc(Nc2cn(C3C[C@@]3(C)C(N)=O)nc2C)ncc1Br (single isomer, unassigned) [Example 3, (1,2-cis)-2-(4-((5-bromo-4-(ethylamino)pyrimidin-2-yl)amino)-3-methyl-1H-pyrazol-1-yl)-1-methylcyclopropanecarboxamide]",,2.28 nM,10.5 nM
"CCNc1nc(Nc2cn([C@@H]3C[C@@H]3C(N)=O)nc2C2CC2)ncc1C(F)(F)F (single isomer, unassigned) [Example 8, (1,2-cis)-2-(3-cyclopropyl-4-((4-(ethylamino)-5-(trifluoromethyl)pyrimidin-2-yl)amino)-1H-pyrazol-1-yl)cyclopropanecarboxamide]",,1.11 nM,4.94 nM
